Source: patent publication US20240228493A1, “LRRK2 INHIBITORS AND USES THEREOF” (NEURON23, ICN., priority 2022, published 2024)

Experiments:
Caco-2 cells = experiment: Caco-2 bidirectional permeability; format: in vitro ADME; conditions: for Caco-2 ER: Efflux Ratio=Papp(BA)/Papp(AB); for Caco-2 A2B (10^−6 cm/s): apical to basolateral; for Caco-2 A2B (10^−6 cm/s) / Caco-2 B2A (10^−6 cm/s): 2 hours, pH 7.4; for Caco-2 B2A (10^−6 cm/s): basolateral to apical
Protocol: The compounds disclosed herein were tested in vitro on CaCo2 cell penetration according to the following procedures.
Caco-2 cells purchased from ATCC were seeded onto […] (PET) in 96-well Corning Insert plates at 1×10^5 cells/cm^2. The media were refreshed every 4 to 5 days until the 21st to 28th day for confluent cell monolayer formation.
Experiments were run in duplicate using a HBSS transport buffer containing 10 mM HEPES at pH 7.4. The test article TEST COMPOUND was tested bi-directionally at […] concentrations, the control compound digoxin was tested bi-directionally at 10 μM, and nadolol and metoprolol were tested at 2.0 μM in the A to B direction. Final DMSO concentrations were adjusted to less than 1%. The plates were incubated for 2 hours in a CO2 incubator at 37±1° C. with 5% CO2 at saturated humidity without shaking. Following incubation, samples were mixed with acetonitrile containing internal standard and centrifuged at 3200×g for 10 minutes. Then 200 μL of supernatant was taken from all samples. For TEST COMPOUND and digoxin, the supernatant was diluted with 200 μL of ultra-pure water and for nadolol and metoprolol, the supernatant was diluted with 600 μL of ultra-pure water. All samples were analyzed by LC-MS/MS. Concentrations of TEST COMPOUND and control compounds were determined in starting solutions, donor well solutions, and receiver well solutions using peak area ratios (PAR) of analyte to internal standard. After the transport assay, a lucifer yellow rejection assay was run to determine the Caco-2 cell monolayer integrity.
The apparent permeability (Papp), the % recovery and the efflux ratio were calculated as follows:
Papp=(dCr/dt)×Vr/(A×C0) 1.
Efflux Ratio=Papp(BA)/Papp(AB) 3. • Where: • dCr/dt is the slope of the cumulative concentration in the receiver compartment versus time (mM/s). • Vr and Vd is the volume in the receiver and donor compartments (0.075 mL on the apical side, 0.25 mL on the basolateral side), respectively. • A is the surface area of the cell monolayer (0.0804 cm^2). • C0 is the measured donor concentrations (μM) at the beginning of the experiment. • Cd and Cr are the final measured concentrations in the donor and receiver compartments, respectively.

human hepatocyte = experiment: Human hepatocyte stability, predicted hepatic clearance (h-Hept CL predict); format: in vitro ADME; conditions: human hepatocytes, 0.5×10^6 cells/mL, 1 μM, values without asterisk
Protocol: The compounds disclosed herein were tested in vitro on human hepatocyte for in vitro h-Hept CL predict according to the following procedures. • 1. Compound sock solutions were prepared by dissolving test compound and positive control in dimethyl sulfoxide (DMSO) at a concentration of 10 mM. Stock solutions were then diluted to 100 μM solutions by combining 198 μL of 50% acetonitrile/50% water with 2 μL of the 10 mM stock in separate conical tubes. • 2. Cryopreserved hepatocytes were prepared as follows: Incubation medium (William's E Medium supplemented with GlutaMAX) and hepatocyte thawing medium were placed in a 37° C. water bath and allowed to warm for at least 15 minutes prior to use. Cryopreserved hepatocytes were removed from storage, ensuring that vials remained at cryogenic temperatures until thawed. Cells were thawed by placing the vials in a 37° C. water bath and gently shaking the vials for 2 minutes. After thawing was completed, vials were sprayed with 70% ethanol and transferred to a biosafety cabinet. Hepatocytes were transferred into 50 mL conical tube containing thawing medium using wide-bore pipette tips. Tubes were placed into a centrifuge and spun at 100 g for 10 minutes. Then thawing medium was aspirated and hepatocytes were resuspended in enough incubation medium to yield ˜1.5×10^6 cells/mL. Cells were counted using acridine orange and propidium iodide (AO/PI) staining, and the viable cell density was determined. Cells were diluted with incubation medium to a working cell density of 0.5×10^6 viable cells/mL. • 3. To determine hepatocyte stability, 198 μL of hepatocytes were transferred into each well of a 96-well non-coated plate. Plates were placed in an incubator to allow the hepatocytes to warm for 10 minutes. • 4. The reaction was started by transferring 2 μL of the 100 μM test compound or positive control solution into respective wells of the 96-well non-coated plates. Plates were returned to the incubator until 25 μL aliquots of well contents were sampled at time points of 0, 15, 30, 60, 90 and 120 minutes. The aliquots were then mixed with 6 volumes (150 μL) of acetonitrile containing internal standard, IS (100 nM alprazolam, 200 nM caffeine and 100 nM tolbutamide) to terminate the reaction and vortexed for 5 minutes. After centrifuging the samples for 45 minutes at 3,220 g, aliquots of 100 μL of the supernatant were taken and diluted with 100 μL of ultra-pure water. The mixture was used for LC/MS/MS analysis. All incubations were performed in duplicate.
All calculations were carried out using Microsoft Excel. Peak area ratios (PAR) were determined from extracted ion chromatograms. The in vitro half-life (t1/2) of parent compound was determined by regression analysis of the percent parent disappearance vs. time curve as follows:
Conversion of the in vitro t1/2 (in minutes) into the in vitro intrinsic clearance (in vitro CLint, in μL/min/1×10^6 cells) was done using the following equation (mean of duplicate determinations): […]
The scaled-up intrinsic clearance (CLint, mL/min/kg), predicted hepatic clearance (CLH, mL/min/kg) and hepatic extraction ratio (ER) were calculated using the following equations:
CLint=(0.693/t1/2)*(1/(hepatocyte concentration (0.5*10^6 cells/mL)))*scaling factors (Table (A) Appendix Table 1)
CLHept-predict=(QH*Scaled-up CLint*fub)/(QH+Scaled-up CLint*fub)
ER=CLH/QH • Where: • V=incubation volume (0.2 mL) • N=number of hepatocytes per well (0.1*10^6 cells) • QH=hepatic blood flow (mL/min/kg) (Table (A) Appendix Table 1) • fub=fraction of unbound drug in plasma, assumed to be 1

[1] = biological target: T1, wt human LRRK2, catalytic site (Homo sapiens, UniProt Q5S007); experiment: TR-FRET LanthaScreen Tb Kinase Activity Assay, LRRK2 inhibition; format: biochemical; conditions: 2 nM wt human LRRK2, 400 nM peptide, 38 μM ATP
T1 construct: wt human LRRK2, catalytic site, catalytic site (ThermoFisher/USA); purchased ThermoFisher
Protocol: The compounds disclosed herein were tested for their inhibitory effect on LRRK2 kinase according to the following procedures.
The protocol for basic TR-FRET LanthaScreen Tb Kinase Activity Assay inhibitor studies were as follows. LanthaScreen Kinase Activity Assays (ThermoFisher/USA) to evaluate inhibitors were performed by addition of 100 nL of test compound in corresponding DMSO dilutions/5 μL of kinase/fluorescein-ERM (LRRKtide) peptide mixture, Compound & kinase were pre-incubated for 15 minutes, then 5 μl of ATP into 384 well small volume plates. After incubation for 120 minutes at room temperature, the detection reagents containing Tb-anti-pLRRKtide antibody were added to monitor phosphorylation level of peptide. Then, after 60 min minutes incubation at room temperature plates were read in Envision. Data analysis of emission ratios was according to LanthaScreen Tb Kinase Activity Assay protocol.
Kinase and assay components were adjusted to final concentrations according to the kit protocol. For LRRK2: 2 nM wt human LRRK2, catalytic site, catalytic site (ThermoFisher/USA), 400 nM peptide, 38 μM ATP in 1× Kinase Buffer A. […]
Kinase and assay components were adjusted to final concentrations according to the kit protocol.

T1 sequence (Q5S007 1879-2138 limits assumed): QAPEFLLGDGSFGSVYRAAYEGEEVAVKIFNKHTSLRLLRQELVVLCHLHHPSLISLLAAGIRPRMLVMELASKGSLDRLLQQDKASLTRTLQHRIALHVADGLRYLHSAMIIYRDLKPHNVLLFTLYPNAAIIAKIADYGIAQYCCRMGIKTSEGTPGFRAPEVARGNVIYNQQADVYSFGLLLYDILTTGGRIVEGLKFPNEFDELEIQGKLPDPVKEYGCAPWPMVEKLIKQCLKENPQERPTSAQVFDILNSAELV

Caco-2 ER (Caco-2 cells) | Caco-2 A2B (10^−6 cm/s) (Caco-2 cells) | Caco-2 B2A (10^−6 cm/s) (Caco-2 cells) | hHep Cl (mL/min/kg) (human hepatocyte) | IC50 [1] [nM] | Compound
L (L (Likely)”: ER≥2.5) | L (L (Low permeability)”: A2B (B2A)<1) | H (H (High permeability)”: A2B (B2A)>5) | L (L (Low Cl)”: Hep Cl (mL/min/kg)<6.3) | < 1 | Cc1n[nH]c2c1N=C(c1c(F)cccc1F)Nc1cnc(N3CCNC4(COC4)C3)cc1-2 [Example 7, 8-[8-(2,6-difluorophenyl)-5-methyl-3,4,7,9,12-pentazatricyclo[8.4.0.02,6]tetradeca-1(10),2(6),4,7,11,13-hexaen-13-y1]-2-oxa-5,8-diazaspiro[3.5]nonane]
L (L (Likely)”: ER≥2.5) | L (L (Low permeability)”: A2B (B2A)<1) | H (H (High permeability)”: A2B (B2A)>5) | L (L (Low Cl)”: Hep Cl (mL/min/kg)<6.3) | < 1 | Cc1n[nH]c2c1N=C(c1c(F)cccc1F)Nc1cnc(-c3cn[nH]c3)cc1-2 [Example 29, 8-(2,6-difluorophenyl)-5-methyl-13-(1H-pyrazol-4-y1)-3,4,7,9,12-pentazatricyclo[8.4.0.02,6]tetradeca-1(10),2(6),4,7,11,13-hexaene]
L (L (Likely)”: ER≥2.5) | L (L (Low permeability)”: A2B (B2A)<1) | H (H (High permeability)”: A2B (B2A)>5) | L (L (Low Cl)”: Hep Cl (mL/min/kg)<6.3) | 1 to 100 | Cc1n[nH]c2c1N=C(c1c(F)cccc1F)Nc1cnc(N3CCNCC3)cc1-2 [Example 10, 8-(2,6-difluorophenyl)-5-methyl-13-piperazin-1-yl-3,4,7,9,12-pentazatricyclo[8.4.0.02,6]tetradeca-1(10),2(6),4,7,11,13-hexaene]
L (L (Likely)”: ER≥2.5) | L (L (Low permeability)”: A2B (B2A)<1) | H (H (High permeability)”: A2B (B2A)>5) | L (L (Low Cl)”: Hep Cl (mL/min/kg)<6.3) | < 1 | OCc1ccc(F)c(C2=Nc3c(Cl)n[nH]c3-c3cc(N4CCOCC4)ncc3N2)c1F [Example 21, (3-(3-chloro-9-morpholino-1,6-dihydropyrazolo[4,3-d]pyrido[4,3-f][1,3]diazepin-5-yl)-2,4-difluorophenyl)methanol]

Compound | Caco-2 ER (Caco-2 cells) | Caco-2 A2B (10^−6 cm/s) (Caco-2 cells) | Caco-2 B2A (10^−6 cm/s) (Caco-2 cells) | hHep Cl (mL/min/kg) (human hepatocyte) | IC50 [1] [nM]
Cc1n[nH]c2c1N=C(c1c(F)cccc1F)Nc1cnc(N3CCC[C@H](C#N)C3)cc1-2 [Example 19, (3S)-1-[8-(2,6-difluorophenyl)-5-methyl-3,4,7,9,12-pentazatricyclo [8.4.0.02,6]tetradeca-1(10),2(6),4,7,11,13-hexaen-13-yl]piperidine-3-carbonitrile] | L (L (Likely)”: ER≥2.5) | M (M (Moderate permeability)”: 1≤A2B (B2A)≤5) | H (H (High permeability)”: A2B (B2A)>5) | L (L (Low Cl)”: Hep Cl (mL/min/kg)<6.3) | 1 to 100
Cc1n[nH]c2c1N=C(c1c(F)cccc1F)Nc1cnc(N3CCC[C@](C)(C#N)C3)cc1-2 (single isomer, unassigned) [Example 13] | L (L (Likely)”: ER≥2.5) | M (M (Moderate permeability)”: 1≤A2B (B2A)≤5) | H (H (High permeability)”: A2B (B2A)>5) | I (I (Intermediate Cl)”: 6.3≤Hep Cl (mL/min/kg)≤14.7) | < 1
CCS(=O)(=O)N1CCN(c2cc3c(cn2)NC(c2c(F)cccc2F)=Nc2c(C)n[nH]c2-3)CC1 [Example 11, 8-(2,6-difluorophenyl)-13-(4-ethylsulfonylpiperazin-1-y1)-5-methyl-3,4,7,9,12-pentazatricyclo[8.4.0.02, 6]tetradeca-1(10),2(6),4,7,11,13-hexaene] | L (L (Likely)”: ER≥2.5) | L (L (Low permeability)”: A2B (B2A)<1) | H (H (High permeability)”: A2B (B2A)>5) | I (I (Intermediate Cl)”: 6.3≤Hep Cl (mL/min/kg)≤14.7) | < 1
COC1(C#Cc2cc3c(cn2)NC(c2c(F)cccc2F)=Nc2c(C)n[nH]c2-3)CCOCC1 [Example 31, 8-(2,6-difluorophenyl)-13-[2-(4-methoxytetrahydropyran-4-y1)ethynyl]-5-methyl-3,4,7,9,12-pentazatricyclo[8.4.0.02,6]tetradeca-1(10),2(6),4,7,11,13-hexaene] | L (L (Likely)”: ER≥2.5) | M (M (Moderate permeability)”: 1≤A2B (B2A)≤5) | H (H (High permeability)”: A2B (B2A)>5) | I (I (Intermediate Cl)”: 6.3≤Hep Cl (mL/min/kg)≤14.7) | < 1
Cc1n[nH]c2c1N=C(c1c(F)cccc1F)Nc1c-2cc(N2CCC(O)CC2)nc1C [Example 40, 1-(5-(2,6-difluorophenyl)-3,7-dimethyl-1,6-dihydropyrazolo[4,3-d]pyrido[4,3-f][1,3]diazepin-9-yl)piperidin-4-ol] | L (L (Likely)”: ER≥2.5) | M (M (Moderate permeability)”: 1≤A2B (B2A)≤5) | H (H (High permeability)”: A2B (B2A)>5) | I (I (Intermediate Cl)”: 6.3≤Hep Cl (mL/min/kg)≤14.7) | < 1
